Among the data in patent publication US20250145599A1, “CERTAIN CHEMICAL ENTITIES, COMPOSITIONS, AND METHODS” (Retune Pharma Inc., priority 2022, published 2025) are IC50 values, retold here.

The assay addresses IGF-1R (Homo sapiens, UniProt P08069). As to the kind of experiment: IGF-1R biochemical assay (ADP-Glo). The note with it: read-out: IGF1R IC50. The procedure:
The inhibitory activity against IGF-1R was measured using ADP-Glo assay. The percent (%) inhibition at each concentration of compound is calculated based on and relative to the luminescence signal in the Max and Min control wells contained within each assay plate. The Max control wells contain enzyme and substrate as 0% inhibition, and the Min control wells only contain substrate without enzyme as 100% inhibition. The concentrations and % inhibition values for tested compounds are plotted and the concentration of compound required for 50% inhibition (IC50) is determined with a four-parameter logistic dose response equation.
Table 3 provides IC50 data of representative compounds against IGF-1R using ADP-Glo assay. The IC50 data are designated within the following ranges: A: ≤0.10 μM, B: >0.10 μM to ≤1 μM, C: >1 μM to ≤20 μM

Sequence of IGF-1R (P08069 31-1367): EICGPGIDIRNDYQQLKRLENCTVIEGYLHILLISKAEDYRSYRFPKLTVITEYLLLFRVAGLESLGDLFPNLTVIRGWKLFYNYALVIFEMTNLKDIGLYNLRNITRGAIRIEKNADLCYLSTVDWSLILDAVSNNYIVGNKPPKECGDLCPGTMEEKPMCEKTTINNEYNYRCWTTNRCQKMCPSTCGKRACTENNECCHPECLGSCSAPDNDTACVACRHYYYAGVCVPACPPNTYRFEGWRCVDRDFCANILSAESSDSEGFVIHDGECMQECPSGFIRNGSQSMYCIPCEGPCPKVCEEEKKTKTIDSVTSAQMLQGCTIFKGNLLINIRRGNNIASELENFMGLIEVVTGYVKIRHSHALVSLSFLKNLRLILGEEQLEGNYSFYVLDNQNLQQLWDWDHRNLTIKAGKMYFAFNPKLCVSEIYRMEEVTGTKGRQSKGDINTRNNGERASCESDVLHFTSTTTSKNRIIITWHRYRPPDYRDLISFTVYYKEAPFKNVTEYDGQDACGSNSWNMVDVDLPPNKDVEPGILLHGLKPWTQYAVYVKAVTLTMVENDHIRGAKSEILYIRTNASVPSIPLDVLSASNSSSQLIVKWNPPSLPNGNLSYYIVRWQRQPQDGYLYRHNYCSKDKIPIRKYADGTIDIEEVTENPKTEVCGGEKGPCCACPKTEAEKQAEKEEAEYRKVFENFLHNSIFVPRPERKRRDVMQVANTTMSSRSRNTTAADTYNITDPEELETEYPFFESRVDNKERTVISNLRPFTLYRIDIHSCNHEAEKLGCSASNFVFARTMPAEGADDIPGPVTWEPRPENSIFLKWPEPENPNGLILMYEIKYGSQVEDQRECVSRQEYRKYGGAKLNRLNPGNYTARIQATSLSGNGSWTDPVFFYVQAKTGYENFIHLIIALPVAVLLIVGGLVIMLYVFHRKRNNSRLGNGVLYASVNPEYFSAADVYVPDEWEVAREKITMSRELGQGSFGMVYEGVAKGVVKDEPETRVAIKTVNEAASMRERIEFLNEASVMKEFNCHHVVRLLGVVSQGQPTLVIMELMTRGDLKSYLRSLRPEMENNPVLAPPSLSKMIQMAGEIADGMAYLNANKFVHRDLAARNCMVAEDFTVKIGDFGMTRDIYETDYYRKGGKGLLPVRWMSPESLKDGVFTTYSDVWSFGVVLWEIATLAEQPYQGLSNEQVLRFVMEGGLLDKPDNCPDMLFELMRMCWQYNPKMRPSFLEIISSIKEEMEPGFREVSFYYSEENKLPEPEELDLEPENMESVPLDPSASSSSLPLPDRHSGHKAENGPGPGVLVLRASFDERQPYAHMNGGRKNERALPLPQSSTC

As for `COc1cc(-c2ccccc2F)nc2cc(-c3nn([C@H]4C[C@](C)(O)C4)c(N)c3C(N)=O)ccc12` [Example C047, 5-amino-3-(2-(2-fluorophenyl)-4-methoxyquinolin-7-yl)-1-((1r,3r)-3-hydroxy-3-methylcyclobutyl)-1H-pyrazole-4-carboxamide], the 50% inhibitory concentration (IC50) (as a rule, the point on the concentration scale where inhibition reaches its midpoint) was at most 100 nM.

For the molecule `C[C@]1(C(=O)O)C[C@H](n2nc(-c3ccc4ccc(-c5ccccc5)nc4c3)c(C(N)=O)c2N)C1` [Example C022, (1r,3r)-3-(5-amino-4-carbamoyl-3-(2-phenylquinolin-7-yl)-1H-pyrazol-1-yl)-1-methylcyclobutane-1-carboxylic acid], the IC50 lay within 1000 to 20000 nM.

Turning to `COc1nc(-c2ccccc2)nc2cc(-c3nn([C@H]4C[C@@](C)(O)C4)c(N)c3C(N)=O)ccc12` [Example C064, 5-amino-1-((1s,3s)-3-hydroxy-3-methylcyclobutyl)-3-(4-methoxy-2-phenylquinazolin-7-yl)-1H-pyrazole-4-carboxamide], the half-maximal inhibitory concentration (IC50) is 100 to 1000 nM.

Take `NC(=O)c1c(-c2ccc3ccc(-c4ccccc4)nc3c2)nn(C2CCN(CCO)CC2)c1N` [Example C008, 5-amino-1-(1-(2-hydroxyethyl)piperidin-4-yl)-3-(2-phenylquinolin-7-yl)-1H-pyrazole-4-carboxamide]: the IC50 was 100 to 1000 nM.

For `NC(=O)c1c(-c2ccc3ccc(-c4ccccc4)nc3c2)nn2c1NCC(C(N)=O)C2` (stereo not shown) [Example C031], the IC50 was in the range of 1000 to 20000 nM.

Regarding `NC(=O)c1c(-c2ccc3ccc(-c4ccccc4)nc3c2)nn([C@H]2C[C@H](CN3CCNCC3)C2)c1N` [Example C016, 5-amino-3-(2-phenylquinolin-7-yl)-1-((1r,3r)-3-(piperazin-1-ylmethyl)cyclobutyl)-1H-pyrazole-4-carboxamide], the half-inhibitory concentration (IC50) is at most 100 nM.

As to `COc1cc(-c2cccc(F)c2)nc2cc(-c3nn([C@H]4C[C@](C)(O)C4)c(N)c3C(N)=O)ccc12` [Example C049, 5-amino-3-(2-(3-fluorophenyl)-4-methoxyquinolin-7-yl)-1-((1r,3r)-3-hydroxy-3-methylcyclobutyl)-1H-pyrazole-4-carboxamide], the IC50 was at most 100 nM.

With `NC(=O)c1c(-c2ccc3ccc(-c4ccccc4)nc3c2)nn([C@H]2C[C@H](CN3CCC3)C2)c1N` [Example C014, 5-amino-1-((1r,3r)-3-(azetidin-1-ylmethyl)cyclobutyl)-3-(2-phenylquinolin-7-yl)-1H-pyrazole-4-carboxamide], the IC50 was at most 100 nM.

`C[C@]1(O)C[C@@H](n2nc(-c3ccc4cnc(-c5ccccc5)nc4c3)c(C(N)=O)c2N)C1` [Example C054, 5-amino-1-((1s,3s)-3-hydroxy-3-methylcyclobutyl)-3-(2-phenylquinazolin-7-yl)-1H-pyrazole-4-carboxamide]: the half-inhibitory concentration (IC50) lay in the range of 1000 to 20000 nM.

Regarding `NC(=O)c1c(-c2ccc3ccc(-c4ccccc4)nc3c2)nn(C2COC2)c1N` [Example C029, 5-amino-1-(oxetan-3-yl)-3-(2-phenylquinolin-7-yl)-1H-pyrazole-4-carboxamide], the concentration for half-maximal inhibition (IC50) is 1000 to 20000 nM.

Turning to `C[C@]1(O)C[C@@H](n2nc(-c3ccc4ccc(-c5ccccn5)nc4c3F)c(C(N)=O)c2N)C1` [Example C057, 5-amino-3-(8-fluoro-2-(pyridin-2-yl)quinolin-7-yl)-1-((1s,3s)-3-hydroxy-3-methylcyclobutyl)-1H-pyrazole-4-carboxamide], the half-inhibitory concentration (IC50) fell in the range of 100 to 1000 nM.

`C[C@]1(O)C[C@@H](n2nc(-c3ccc4ccc(-c5ccccc5)nc4c3F)c(C(N)=O)c2N)C1` [Example C028, 5-amino-3-(8-fluoro-2-phenylquinolin-7-yl)-1-((1s,3s)-3-hydroxy-3-methylcyclobutyl)-1H-pyrazole-4-carboxamide]: the half-maximal inhibitory concentration (IC50) was at most 100 nM.

Turning to `CN1CCN(C[C@H]2C[C@H](n3nc(-c4ccc5ccc(-c6ccccc6)nc5c4)c(C(N)=O)c3N)C2)CC1` [Example C021, 5-amino-1-((1r,3r)-3-((4-methylpiperazin-1-yl)methyl)cyclobutyl)-3-(2-phenylquinolin-7-yl)-1H-pyrazole-4-carboxamide], the IC50 was at most 100 nM.
